Data on 10 compounds can be found in PMC5702903 (CPT: Pharmacometrics & Systems Pharmacology, 2017).

The term clearance denotes the rate of elimination divided by the concentration. A higher clearance goes with efficient removal. Usually fraction unbound stands for free concentration divided by total concentration. A higher fraction unbound goes with weak binding.

A short description of data set [1]: Empirical plasma PK model. Type of data set: in vivo, rat. The note with it: for clearance: rat, plasma, iv.
The conditions of data set [2]: source not given; cited from earlier work.
A short description of data set [3]: Drug transport clearance at the brain cell membrane in the PBPK model. Set-up: species or system rat. Particulars: comparison of QBCM_in/QBCM_out with QBBB_in/QBBB_out.
A short description of a further data set: Free fraction in brain. Type of data set: in vitro ADME. The note with it: rat.
The nature of the next data set: Asymmetry factors. Particulars: for AFin2, asymmetry factor: into CSFLV at BCSFB1; for AFin2, asymmetry factor / AFout2, asymmetry factor: calculated from Kp,uu,CSFLV; for AFin3, asymmetry factor: into CSFTFV at BCSFB2; for AFin3, asymmetry factor / AFout3, asymmetry factor: calculated from Kp,uu,CSFCM; for AFin1, asymmetry factor: into brainECF at BBB; for AFin1, asymmetry factor / AFout1, asymmetry factor: calculated from Kp,uu,brainECF; for AFout2, asymmetry factor: out from CSFLV at BCSFB1; for AFout3, asymmetry factor: out from CSFTFV at BCSFB2; for AFout1, asymmetry factor: out from brainECF at BBB. Set-up: species or system rat.

For data set [4] the following is noted: rat; cited from earlier work.
For data set [5] the following is noted: source not given; cited from earlier work. The source holds these as a separate data set.
For data set [6] the following is noted: ref fu,p references of Table SI; cited from earlier work.
Setting [7] is: rat plasma PK model, estimate (RSE, %).
Setting [8] is: rat plasma PK model, parameter estimate (RSE, %).

On to `CN(Cc1cnc2nc(N)nc(N)c2n1)c1ccc(C(=O)N[C@@H](CCC(=O)O)C(=O)O)cc1` [Methotrexate], for which, in data set [1] (setting [7]), the “ɷ_CLPL, interindividual variability” value was 37.4 (46.8) %; the “ɷ_QPL_PER2, interindividual variability” value was 42.5 (42.0) %; the “ɷ_VPL, interindividual variability” value was 40.4 (75.5) %. In addition, in data set [1] (setting [8]), the “VPER1, distribution volume of the peripheral compartment 1” value (shortened to “VPER1, distribution volume”) is 111 (14.6) mL; the “VPER2, distribution volume of the peripheral compartment 2” value (“VPER2, distribution volume” for short) is recorded as 83.5 (34.9) mL; the “VPL, distribution volume of the central compartment” value (shortened to “VPL, distribution volume”) is reported as 28.0 (55.0) mL. The compound further showed a clearance in data set [1] of 8.04 mL/min. In addition, in data set [2], the Charge class entry is “Acid”. Besides, the “what limits the transport clearance from brainMV, via brainECF, to brainICF” value (“what limits the transport clearance” below) in data set [3] is “limited by QBCM_in and QBCM_out”.

On to `Cc1nc2n(c(=O)c1CCN1CCC(c3noc4cc(F)ccc34)CC1)CCCC2O` (stereo not drawn) [Paliperidone], for which, in data set [1] (setting [7]), the “ɷ_CLPL, interindividual variability” value is listed as 42.0 (62.5) % and the “ɷ_VPL, interindividual variability” value is listed as 47.5 (81.4) %. For the same compound, in data set [1] (setting [8]), the “VPER1, distribution volume” value is on record as 3,580 (35.8) mL and the “VPL, distribution volume” value is listed as 26,400 (12.6) mL. This compound yielded a clearance in data set [1] of 196 mL/min. For the same compound, the free fraction (fraction unbound) in “Free fraction in brain” amounted to 0.065. In data set [2], the Charge class result is given as “Base” and the “pKa (acid)” value is 13.7. Besides, the “what limits the transport clearance” value in data set [3] was “limited by QBBB_in and QBBB_out”. In the data set “Asymmetry factors”, the “AFin2, asymmetry factor” value is 1.0; the “AFin3, asymmetry factor” value is 1.0; the “AFin1, asymmetry factor” value is recorded as 1.0; the “AFout2, asymmetry factor” value is recorded as 3.7. For the same compound, in “Asymmetry factors”, the “AFout3, asymmetry factor” value is given as 4.7 and the “AFout1, asymmetry factor” value is 3.0. Moreover, in data set [4], the “Kp,uu,CSFCM, unbound CSFCM-to-plasma concentration ratio” value is on record as 0.50; the “Kp,uu,CSFLV, unbound CSFLV-to-plasma concentration ratio” value is 0.50; the “Kp,uu,brainECF, unbound brain extracellular fluid-to-plasma concentration ratio” value was 0.50.

On to `CC(C)NCC(O)COc1ccc(CC(N)=O)cc1` (stereo not drawn) [Atenolol], for which the Charge class result in data set [2] is “Base”.

For `Cc1nc2n(c(=O)c1CCN1CCC(c3noc4cc(F)ccc34)CC1)CCCC2` [Risperidone], in data set [1] (setting [7]), the “ɷ_CLPL, interindividual variability” value is recorded as 72.5 (38.7) % and the “ɷ_VPL, interindividual variability” value was 53.7 (78.8) %. In addition, the “VPL, distribution volume” value in data set [1] (setting [8]) is 43,100 (28.1) mL. Besides, the clearance in data set [1] was 886 mL/min. For the same compound, in data set [2], the Charge class entry is given as “Base”. The “what limits the transport clearance” value in data set [3] was “limited by QBBB_in and QBBB_out”. Besides, the “fu,b, free fraction in brain” value in data set [5] is on record as 0.065. Further, in the data set “Asymmetry factors”, the “AFin2, asymmetry factor” value is recorded as 1.0; the “AFin3, asymmetry factor” value is listed as 1.0; the “AFin1, asymmetry factor” value is 1.0; the “AFout2, asymmetry factor” value was 1.3. Moreover, in “Asymmetry factors”, the “AFout3, asymmetry factor” value is on record as 1.5 and the “AFout1, asymmetry factor” value is recorded as 1.3.

Turning to `C=C[C@H]1C[N@@]2CC[C@H]1C[C@@H]2[C@@H](O)c1ccnc2ccc(OC)cc12` [Quinidine], in data set [1] (setting [7]), the “ɷ_CLPL, interindividual variability” value was 23.9 (15.3) %; the “ɷ_QPL_PER1, interindividual variability” value is on record as 24.3 (28.2) %; the “ɷ_VPER1, interindividual variability” value is listed as 12.8 (26.6) %.

In the case of `CC(=O)Nc1ccc(O)cc1` [Acetaminophen], the “ɷ_VPER1, interindividual variability” value in data set [1] (setting [7]) was 51.8 (86.0) %. Also, in data set [1] (setting [8]), the “Fraction, percentage of the drug which is reabsorbed by enterohepatic circulation” value was 0.693 (19.6); the “VPER1, distribution volume” value is 363 (33.1) mL; the “VPL, distribution volume” value is listed as 49.5 (59.0) mL. Moreover, the Charge class result in data set [2] is “Neutral”. Moreover, in data set [6], the “fu,p, free fraction in plasma” value is reported as 0.81.

`O=C1NC(=O)C(c2ccccc2)(c2ccccc2)N1` [Phenytoin]: in data set [1] (setting [7]), the “ɷ_CLPL, interindividual variability” value was 73.8 (12.5) % and the “ɷ_VPL, interindividual variability” value is on record as 75.0 (27.2) %. In data set [1] (setting [8]), the “VPER1, distribution volume” value was 2,050 (7.50) mL and the “VPL, distribution volume” value is 943 (21.5) mL. Moreover, the clearance in data set [1] worked out at 36 mL/min. In addition, the Charge class result in data set [2] is on record as “Neutral”. Besides, the “what limits the transport clearance” value in data set [3] was “limited by QBBB_in and QBBB_out”. In data set [5], the “fu,b, free fraction in brain” value is 0.080. Moreover, in the data set “Asymmetry factors”, the “AFin2, asymmetry factor” value is recorded as 1.0; the “AFin3, asymmetry factor” value is 1.0; the “AFin1, asymmetry factor” value is given as 1.0; the “AFout2, asymmetry factor” value is reported as 7.6. In “Asymmetry factors”, the “AFout3, asymmetry factor” value is listed as 7.7 and the “AFout1, asymmetry factor” value is reported as 4.2. For the same compound, in data set [4], the “Kp,uu,CSFCM, unbound CSFCM-to-plasma concentration ratio” value is given as 0.26; the “Kp,uu,CSFLV, unbound CSFLV-to-plasma concentration ratio” value is 0.26; the “Kp,uu,brainECF, unbound brain extracellular fluid-to-plasma concentration ratio” value is 0.26.

On to `CCN1CCC[C@H]1CNC(=O)c1c(O)c(Cl)cc(Cl)c1OC` [Raclopride], for which the “ɷ_CLPL, interindividual variability” value in data set [1] (setting [7]) is recorded as 14.4 (29.8) %. Further, in data set [1] (setting [8]), the “VPER1, distribution volume” value was 684 (19.2) mL; the “VPER2, distribution volume” value is recorded as 493 (18.3) mL; the “VPL, distribution volume” value was 48.9 (16.3) mL. The compound also yielded a clearance in data set [1] of 46.4 mL/min. Also, in data set [2], the Charge class result is “Zwitterion”, the “pKa (acid)” value is recorded as 5.9 and the “pKa (base)” value is reported as 9.0. The “what limits the transport clearance” value in data set [3] is “limited by QBBB_in and QBBB_out”. Also, in “Asymmetry factors”, the “AFin2, asymmetry factor” value is reported as 1.0; the “AFin3, asymmetry factor” value is listed as 1.0; the “AFin1, asymmetry factor” value is recorded as 1.0; the “AFout2, asymmetry factor” value is given as 1.1. Further, in the data set “Asymmetry factors”, the “AFout3, asymmetry factor” value is reported as 1.9 and the “AFout1, asymmetry factor” value was 1.4.

Regarding `CCN1CCC[C@H]1CNC(=O)c1c(OC)ccc(Br)c1OC` [Remoxipride], in data set [1] (setting [7]), the “ɷ_CLPL, interindividual variability” value is given as 31.0 (12.0) %; the “ɷ_QPL_PER1, interindividual variability” value is on record as 25.1 (12.1) %; the “ɷ_QPL_PER2, interindividual variability” value is on record as 76.7 (13.5) %; the “ɷ_VPL, interindividual variability” value is 64.1 (32.9) %. Moreover, in data set [1] (setting [8]), the “VPER1, distribution volume” value is reported as 253 (10.9) mL; the “VPER2, distribution volume” value is reported as 757 (4.00) mL; the “VPL, distribution volume” value was 83.7 (18.3) mL. In addition, the clearance in data set [1] was found to be 42.2 mL/min. Moreover, the Charge class entry in data set [2] was “Base”.

On to `CN1CC[C@]23c4c5ccc(O)c4O[C@H]2[C@@H](O)C=C[C@H]3[C@H]1C5` [Morphine], for which, in data set [1] (setting [7]), the “ɷ_CLPL, interindividual variability” value is 17.8 (39.5) %; the “ɷ_QPL_PER1, interindividual variability” value was 28.8 (29.4) %; the “ɷ_QPL_PER2, interindividual variability” value was 86.7 (19.3) %; the “ɷ_VPER1, interindividual variability” value is reported as 46.0 (15.3) %. For the same compound, in data set [1] (setting [7]), the “ɷ_VPL, interindividual variability” value is on record as 80.6 (17.2) %; the “ɷ_study1, interoccasional variability” value is 42.7 (16.2) %; the “ɷ_study2, interoccasional variability” value is recorded as 29.7 (30.5) %. Further, the Charge class entry in data set [2] is listed as “Base”.
